Laboratory results taken from PubChem BioAssay (NCI).
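Abbreviation: GI50, concentration required for 50% inhibition of growth. At the TGI there is no net growth.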

Tests used:
Experiment in all cases: NCI-60 cell line screen, 384-well format
KM12 colon = tested on: KM12 colon
HCT-15 colon = tested on: HCT-15 colon
NCI-H322M lung = tested on: NCI-H322M lung
OVCAR-4 ovarian = tested on: OVCAR-4 ovarian
MCF7 breast = tested on: MCF7 breast
A549 NSCLC = tested on: A549 NSCLC
DU-145 prostate = tested on: DU-145 prostate
SF-268 CNS = tested on: SF-268 CNS
HCC-2998 colon = tested on: HCC-2998 colon
ACHN renal = tested on: ACHN renal
NCI-H522 lung = tested on: NCI-H522 lung
HOP-62 NSCLC = tested on: HOP-62 NSCLC
MALME-3M melanoma = tested on: MALME-3M melanoma
SK-MEL-2 melanoma = tested on: SK-MEL-2 melanoma
MDA-MB-231 breast = tested on: MDA-MB-231 breast
SK-MEL-28 melanoma = tested on: SK-MEL-28 melanoma
RPMI-8226 leukemia = tested on: RPMI-8226 leukemia
NCI/ADR-RES ovarian = tested on: NCI/ADR-RES ovarian
MDA-MB-468 breast = tested on: MDA-MB-468 breast
SN12C renal = tested on: SN12C renal
SNB-75 CNS = tested on: SNB-75 CNS
HL-60(TB) leukemia = tested on: HL-60(TB) leukemia
EKVX NSCLC = tested on: EKVX NSCLC
NCI-H460 NSCLC = tested on: NCI-H460 NSCLC
SK-OV-3 ovarian = tested on: SK-OV-3 ovarian
SF-539 CNS = tested on: SF-539 CNS
PC-3 prostate = tested on: PC-3 prostate
BT-549 breast = tested on: BT-549 breast
MOLT-4 leukemia = tested on: MOLT-4 leukemia
UACC-257 melanoma = tested on: UACC-257 melanoma
T-47D breast = tested on: T-47D breast
TK-10 renal = tested on: TK-10 renal
MDA-MB-435 melanoma = tested on: MDA-MB-435 melanoma
SK-MEL-5 melanoma = tested on: SK-MEL-5 melanoma
SR leukemia = tested on: SR leukemia
786-0 renal = tested on: 786-0 renal
A498 renal = tested on: A498 renal
NCI-H23 lung = tested on: NCI-H23 lung
LOX IMVI melanoma = tested on: LOX IMVI melanoma
COLO 205 colon = tested on: COLO 205 colon
M14 melanoma = tested on: M14 melanoma
SNB-19 CNS = tested on: SNB-19 CNS
CAKI-1 renal = tested on: CAKI-1 renal
OVCAR-8 ovarian = tested on: OVCAR-8 ovarian
HOP-92 NSCLC = tested on: HOP-92 NSCLC
HS 578T breast = tested on: HS 578T breast
U251 glioblastoma = tested on: U251 glioblastoma
CCRF-CEM leukemia = tested on: CCRF-CEM leukemia
UACC-62 melanoma = tested on: UACC-62 melanoma
HT29 colon = tested on: HT29 colon
OVCAR-3 ovarian = tested on: OVCAR-3 ovarian
RXF 393 renal = tested on: RXF 393 renal

CCOC(=O)c1c(NN2CCN(CC(F)(F)F)CC2)oc(/C=C2\C=Nc3ncccc32)c1O
GI50 (KM12 colon): 3.28 µM
TGI (KM12 colon): 8.02 µM
GI50 (HCT-15 colon): 5.2 µM
TGI (HCT-15 colon): > 100 µM
GI50 (NCI-H322M lung): 4.05 µM
TGI (NCI-H322M lung): > 100 µM
GI50 (OVCAR-4 ovarian): 96.1 µM
TGI (OVCAR-4 ovarian): > 100 µM
GI50 (MCF7 breast): 3.69 µM
TGI (MCF7 breast): 10.2 µM
GI50 (A549 NSCLC): 5.31 µM
TGI (A549 NSCLC): > 100 µM
GI50 (DU-145 prostate): 3.08 µM
TGI (DU-145 prostate): > 100 µM
GI50 (SF-268 CNS): 4.06 µM
TGI (SF-268 CNS): 11.6 µM
GI50 (HCC-2998 colon): 1.61 µM
TGI (HCC-2998 colon): 6.01 µM
GI50 (ACHN renal): 5.86 µM
TGI (ACHN renal): > 100 µM
GI50 (NCI-H522 lung): 1.14 µM
TGI (NCI-H522 lung): > 100 µM
GI50 (HOP-62 NSCLC): 2.86 µM
TGI (HOP-62 NSCLC): 9.4 µM
GI50 (MALME-3M melanoma): 3.05 µM
TGI (MALME-3M melanoma): 9.54 µM
GI50 (SK-MEL-2 melanoma): 2.62 µM
TGI (SK-MEL-2 melanoma): 4.86 µM
GI50 (MDA-MB-231 breast): 5.8 µM
TGI (MDA-MB-231 breast): > 100 µM
GI50 (SK-MEL-28 melanoma): 5.23 µM
TGI (SK-MEL-28 melanoma): 16.7 µM
GI50 (RPMI-8226 leukemia): 1.96 µM
TGI (RPMI-8226 leukemia): 4.22 µM
GI50 (NCI/ADR-RES ovarian): > 100 µM
TGI (NCI/ADR-RES ovarian): > 100 µM
GI50 (MDA-MB-468 breast): 3.2 µM
TGI (MDA-MB-468 breast): 9.71 µM
GI50 (SN12C renal): 5.42 µM
TGI (SN12C renal): > 100 µM
GI50 (SNB-75 CNS): 6.66 µM
TGI (SNB-75 CNS): 18.9 µM
GI50 (HL-60(TB) leukemia): 1.18 µM
TGI (HL-60(TB) leukemia): 2.41 µM
GI50 (EKVX NSCLC): 7.51 µM
TGI (EKVX NSCLC): > 100 µM
GI50 (NCI-H460 NSCLC): 2.23 µM
TGI (NCI-H460 NSCLC): 4.4 µM
GI50 (SK-OV-3 ovarian): 2.72 µM
TGI (SK-OV-3 ovarian): > 100 µM
GI50 (SF-539 CNS): 2.84 µM
TGI (SF-539 CNS): 9.8 µM
GI50 (PC-3 prostate): 3.64 µM
TGI (PC-3 prostate): > 100 µM
GI50 (BT-549 breast): 2.44 µM
TGI (BT-549 breast): 5.08 µM
GI50 (MOLT-4 leukemia): 1.88 µM
TGI (MOLT-4 leukemia): 3.37 µM
GI50 (UACC-257 melanoma): 17.4 µM
TGI (UACC-257 melanoma): 36.2 µM
GI50 (T-47D breast): > 100 µM
TGI (T-47D breast): > 100 µM
GI50 (TK-10 renal): > 100 µM
TGI (TK-10 renal): > 100 µM
GI50 (MDA-MB-435 melanoma): 10.8 µM
TGI (MDA-MB-435 melanoma): 29.4 µM
GI50 (SK-MEL-5 melanoma): 2.67 µM
TGI (SK-MEL-5 melanoma): 14.9 µM
GI50 (SR leukemia): 0.222 µM
TGI (SR leukemia): 0.488 µM
GI50 (786-0 renal): 3.39 µM
TGI (786-0 renal): 8.44 µM
GI50 (A498 renal): 2.75 µM
TGI (A498 renal): > 100 µM
GI50 (NCI-H23 lung): 4.83 µM
TGI (NCI-H23 lung): 18.5 µM
GI50 (LOX IMVI melanoma): 3.14 µM
TGI (LOX IMVI melanoma): 9.61 µM
GI50 (COLO 205 colon): 0.373 µM
TGI (COLO 205 colon): 3.37 µM
GI50 (M14 melanoma): 3.36 µM
TGI (M14 melanoma): 10.5 µM
GI50 (SNB-19 CNS): 8.03 µM
TGI (SNB-19 CNS): > 100 µM
GI50 (CAKI-1 renal): 3.83 µM
TGI (CAKI-1 renal): > 100 µM
GI50 (OVCAR-8 ovarian): 5.48 µM
TGI (OVCAR-8 ovarian): > 100 µM
GI50 (HOP-92 NSCLC): > 100 µM
TGI (HOP-92 NSCLC): > 100 µM
GI50 (HS 578T breast): 1.55 µM
TGI (HS 578T breast): 3.21 µM
GI50 (U251 glioblastoma): 2.76 µM
TGI (U251 glioblastoma): > 100 µM
GI50 (CCRF-CEM leukemia): 0.911 µM
TGI (CCRF-CEM leukemia): 2.31 µM
GI50 (UACC-62 melanoma): 2.12 µM
TGI (UACC-62 melanoma): 3.96 µM
GI50 (HT29 colon): 2.5 µM
TGI (HT29 colon): > 100 µM
GI50 (OVCAR-3 ovarian): 2.82 µM
TGI (OVCAR-3 ovarian): > 100 µM
GI50 (RXF 393 renal): 1.94 µM
TGI (RXF 393 renal): 3.91 µM
